Activity calls are given as the source filed them. No cut-off for these calls is given here.
Legend:
[1] = system: SK-MEL-28; assay: Induction of apoptosis in human SK-MEL-28 cells assessed as increase in caspase-3/7 activity at […] incubated for 36 hrs in presence of 1 ng/mL TNFlpha by IncuCyteS3 caspase-3/7 fluorescence-based apoptosis assay; assay type: functional, cell-based
[2] = system: SK-MEL-28; assay: Induction of apoptosis in human SK-MEL-28 cells assessed as increase in caspase-3/7 activity at […] incubated for 36 hrs by IncuCyteS3 caspase-3/7 fluorescence-based apoptosis assay; assay type: functional, cell-based
[3] = Solubility in pH 7.5 aqueous buffer at 25 degC by 1H 1D NMR spectroscopy; assay type: physicochemical
[4] = system: A549; assay: Cytotoxicity in human A549 cells assessed as reduction in cell viability in presence of 1 ng/mL TNFlpha measured every 3 hrs for 4 days by IncuCyteS3 live-cell analysis system based assay; assay type: functional
[5] = system: A549; assay: Induction of apoptosis in human A549 cells assessed as increase in caspase-3/7 activity at […] incubated for 36 hrs in presence of 1 ng/mL TNFlpha by IncuCyteS3 caspase-3/7 fluorescence-based apoptosis assay; assay type: functional, cell-based
[6] = Stability in aqueous buffer at 100 uM to 2 mM by 1H 1D NMR spectroscopy; assay type: physicochemical
[7] = system: A549; assay: Induction of apoptosis in human A549 cells assessed as increase in caspase-3/7 activity at […] incubated for 36 hrs by IncuCyteS3 caspase-3/7 fluorescence-based apoptosis assay; assay type: functional, cell-based
[8] = system: SK-MEL-28; assay: Cytotoxicity in human SK-MEL-28 cells assessed as reduction in cell viability in presence of 1 ng/mL TNFlpha measured every 3 hrs for 4 days by IncuCyteS3 live-cell analysis system based assay; assay type: functional
[9] = target: Baculoviral IAP repeat-containing protein 2 (Homo sapiens) (UniProt Q13490); assay: Binding affinity to N-terminal 6x-His-tagged recombinant human cIAP1-BIR3 (258 to 363 residues) expressed in Escherichia coli assessed as increase in […] domain mass at protein-compound ratio of 1:10 incubated for 6 hrs at 25 degC by LC-MS analysis relative to control
[10] = Stability in mouse plasma assessed as half life at 200 uM at 37 degC incubated up to 120 mins by mass spectrometry; assay type: ADME, cell-free; conditions: 2 h
[11] = target: T1, E3 ubiquitin-protein ligase XIAP (Homo sapiens, UniProt P98170)
[12] = target: T1, E3 ubiquitin-protein ligase XIAP; remark: listed apart in the source
[13] = target: T1, E3 ubiquitin-protein ligase XIAP; remark: listed apart in the source
[14] = target: T2, Baculoviral IAP repeat-containing protein 3 (Homo sapiens, UniProt Q13489); assay: Inhibition of N-terminal 6x-His-tagged recombinant human cIAP2-BIR3 (244 to 349 residues) expressed in Escherichia coli incubated for 2 hrs without 6 hrs pre-incubation with enzyme by biotinylated AVPI peptide based DELFIA
[15] = target: T1, E3 ubiquitin-protein ligase XIAP; remark: listed apart in the source
[16] = target: T2, Baculoviral IAP repeat-containing protein 3; assay: Inhibition of N-terminal 6x-His-tagged recombinant human cIAP2-BIR3 (244 to 349 residues) expressed in Escherichia coli incubated for 2 hrs after 6 hrs pre-incubation with enzyme by biotinylated AVPI peptide based DELFIA

T1 sequence (P98170 whole entry): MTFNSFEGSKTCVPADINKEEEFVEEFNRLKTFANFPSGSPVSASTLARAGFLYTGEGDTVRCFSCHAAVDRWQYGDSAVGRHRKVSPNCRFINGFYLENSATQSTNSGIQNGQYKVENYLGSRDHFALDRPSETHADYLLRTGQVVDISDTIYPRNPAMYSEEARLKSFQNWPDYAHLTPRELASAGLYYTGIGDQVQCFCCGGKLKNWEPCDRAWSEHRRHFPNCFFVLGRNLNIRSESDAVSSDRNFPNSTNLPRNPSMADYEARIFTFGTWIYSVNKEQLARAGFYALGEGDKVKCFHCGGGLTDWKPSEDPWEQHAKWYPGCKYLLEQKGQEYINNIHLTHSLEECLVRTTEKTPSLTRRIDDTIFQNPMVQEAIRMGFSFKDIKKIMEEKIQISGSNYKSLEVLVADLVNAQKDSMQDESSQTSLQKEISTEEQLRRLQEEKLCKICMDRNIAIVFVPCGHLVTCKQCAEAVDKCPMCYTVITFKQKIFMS
T2 sequence (Q13489 whole entry, the tested form may be a part): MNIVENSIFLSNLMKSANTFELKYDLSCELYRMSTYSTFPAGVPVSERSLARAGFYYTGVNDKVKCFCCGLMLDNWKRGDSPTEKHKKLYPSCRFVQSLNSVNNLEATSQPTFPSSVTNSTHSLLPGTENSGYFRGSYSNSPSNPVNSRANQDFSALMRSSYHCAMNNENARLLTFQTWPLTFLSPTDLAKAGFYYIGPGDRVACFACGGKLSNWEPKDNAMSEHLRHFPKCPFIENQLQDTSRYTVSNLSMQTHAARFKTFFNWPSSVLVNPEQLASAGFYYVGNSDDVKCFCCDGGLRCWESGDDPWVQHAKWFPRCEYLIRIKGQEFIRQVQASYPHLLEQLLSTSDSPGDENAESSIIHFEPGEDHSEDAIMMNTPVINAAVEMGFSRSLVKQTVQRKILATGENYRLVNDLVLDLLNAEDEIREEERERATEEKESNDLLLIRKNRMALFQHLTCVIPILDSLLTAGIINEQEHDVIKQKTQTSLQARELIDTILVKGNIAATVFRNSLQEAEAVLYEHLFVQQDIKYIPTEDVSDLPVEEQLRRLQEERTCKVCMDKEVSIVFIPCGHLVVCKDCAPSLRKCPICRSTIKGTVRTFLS
Sequence of Baculoviral IAP repeat-containing protein 2 (Homo sapiens) (Q13490 whole entry, the tested form may be a part): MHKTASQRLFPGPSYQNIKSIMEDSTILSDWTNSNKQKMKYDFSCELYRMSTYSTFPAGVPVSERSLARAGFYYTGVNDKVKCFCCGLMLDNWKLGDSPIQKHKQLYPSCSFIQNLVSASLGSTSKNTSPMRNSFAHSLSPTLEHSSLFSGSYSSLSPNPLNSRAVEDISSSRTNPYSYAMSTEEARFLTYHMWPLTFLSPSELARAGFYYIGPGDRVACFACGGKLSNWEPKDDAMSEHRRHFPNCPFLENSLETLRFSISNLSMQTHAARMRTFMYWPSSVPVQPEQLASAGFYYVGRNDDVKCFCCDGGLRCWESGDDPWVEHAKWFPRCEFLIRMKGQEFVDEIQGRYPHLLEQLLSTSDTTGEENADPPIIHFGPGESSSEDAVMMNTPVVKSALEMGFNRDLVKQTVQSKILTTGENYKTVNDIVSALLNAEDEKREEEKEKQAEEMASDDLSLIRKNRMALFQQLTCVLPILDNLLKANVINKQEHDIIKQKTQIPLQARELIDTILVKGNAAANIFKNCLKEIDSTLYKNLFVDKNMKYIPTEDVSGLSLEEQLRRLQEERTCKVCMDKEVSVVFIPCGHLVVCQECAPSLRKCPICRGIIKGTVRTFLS

CN[C@@H](C)C(=O)N[C@H](C(=O)N1CCC[C@H]1C(=O)N[C@@H]1CCc2c(OS(=O)(=O)F)cccc21)C1CCCCC1
Activity [1]: Dose-dependent effect | Activity [2]: inactive | solubility [3]: <= 2 mM | Activity [4]: Dose-dependent effect | Activity [5]: Dose-dependent effect | Stability [6]: Stable | Activity [7]: inactive | Activity [8]: Dose-dependent effect

CN[C@@H](C)C(=O)N[C@@H](Cc1ccc(OS(=O)(=O)F)cc1)C(=O)N1CCC[C@H]1C(=O)N[C@@H]1CCc2c(F)cccc21
Activity [9]: inactive | Activity [1]: Dose-dependent effect | Activity [2]: inactive | Activity [4]: Dose-dependent effect | Activity [5]: Dose-dependent effect | Activity [7]: inactive | Activity [8]: Dose-dependent effect

CN[C@@H](C)C(=O)NC(Cc1cc(C)c(C(F)(F)F)cc1F)C(=O)N1CCC[C@H]1C(=O)N[C@@H]1CCc2c(OS(=O)(=O)F)cccc21 (mixture of isomers)
Activity [1]: Dose-dependent effect | Activity [2]: inactive | solubility [3]: <= 1 mM | Activity [4]: Dose-dependent effect | Activity [5]: Dose-dependent effect | Activity [7]: inactive | Stability [10]: Stable | Activity [8]: Dose-dependent effect

CN[C@@H](C)C(=O)N[C@H](C(=O)N1CCC[C@H]1c1nc(C(=O)c2ccc(F)cc2)cs1)C1CCCCC1 [LCL-161]
Activity [1]: Dose-dependent effect | Activity [2]: inactive | Activity [4]: Dose-dependent effect | Activity [5]: Dose-dependent effect | Activity [7]: inactive | Stability [10]: Stable | Activity [8]: Dose-dependent effect

CN[C@@H](C)C(=O)N[C@H]1CN(C(=O)CC(C)C)CC[C@H]2CC[C@@H](C(=O)NC(c3ccccc3)c3ccccc3)N2C1=O [XEVINAPANT]
IC50 [11]: 42 nM | Activity [1]: Dose-dependent effect | Activity [2]: inactive | Activity [4]: Dose-dependent effect | Activity [5]: Dose-dependent effect | ΔTm [12]: 17 °C | Activity [7]: inactive | Stability [10]: Stable | IC50 [13]: 47.8 nM | IC50 [14]: 44 nM | ΔTm [15]: 19 °C | IC50 [16]: 133 nM | Activity [8]: Dose-dependent effect

Reference: ChEMBL document CHEMBL4414592, “Aryl-fluorosulfate-based Lysine Covalent Pan-Inhibitors of Apoptosis Protein (IAP) Antagonists with Cellular Efficacy” (J Med Chem, 2019)
